Test results as given in patent US6518318B1, “Stimulating transport of glucose into animal tissue by the administration of pinitol” (priority 1999, dated 2003).

Experiments:
L6 Myoblasts = assay: Glucose uptake (glucose transport) in cell culture; assay type: cell-based; conditions: for GLUCOSE TRANSPORT: Table 3, control 151
Experimental: Glucose transport was tested and measured in accordance with the protocol set forth in Amira Kip et al., Induction of Sugar Uptake Response to Insulin by Serum Depletion in Fusing L6 Myoblasts, American Journal of Physiology, Vol. 247, No. 3, Part 1 (September 1984), herein incorporated by reference, except that the cell culture was preincubated for only 2 hours and the cells treated with varying concentrations of pinitol, insulin or a combination thereof as set forth in Tables One through Three. The raw data, in terms of “counts per minute” as measured with a scintillation counter, is provided in Tables One and Two, while calculated data, in terms of “pmol min^−1 mg protein^−1,” is provided in Table Three.

cells = assay: Glycogen formation (14-C glucose incorporation into ethanol-precipitable glycogen); assay type: cell-based
Experimental: The method for glycogen incorporation is similar to that of J. Berger and N. S. Hayes, Anal Biochem. 261: 159-163 (1998), one of several standard references for radiolabeled (14-C) glucose incorporation into ethanol-precipitable glycogen. Into each well was added 1.25 mil of 1% TritonX100. The wells were then placed on a rotating agitator for 30 minutes to dissolve the cells. A 1 ml sample was removed from each well and placed in a 10 ml plastic tube. Into each sample was added 1 ml of a solution containing 18% trichloroacetic acid and 2 mg/ml of glycogen (added as carrier). The treated samples were placed on ice for 20 minutes and then centrifuged for 10 minutes at 10,000 RPM with the supernatant transferred to new plastic tubes. The remaining solids were washed by adding 0.3 ml of the trichloracetic acid-glycogen solution to the pellet, and centrifuged again as before. The combined supernatants were added to 4 ml of ice cold ethanol and 0.25 ml of 2% sodium sulphate (to help precipitate glycogen, as in L. Y. Hung and L. A. Menahan, Biochemical Medicine, Vol. 24: 356-360 (1980)). This was left overnight at 4° C. The precipitate was collected the next day by centrilugation at 10,000 RPM for 10 min. The precipitate was redisolved in water (2 ml) and reprecipitated as before with ethanol and sodium sulphate. The precipitate was dissolved in water, added to scintillation fluid, and radioactivity determined.

[1] = Experiment Two, administered alone, at higher concentrations

Q: How did the “stimulation of glucose transport (conclusion)” value (L6 Myoblasts; [1]) turn out when `CO[C@H]1[C@H](O)[C@@H](O)[C@@H](O)[C@H](O)[C@@H]1O` [Pinitol] was run?
A: The value was “significant stimulation in glucose transport”.

Q: What about the “COUNTS PER MINUTE (glucose uptake)” value (L6 Myoblasts; Table 1, Pinitol 0.14 mM, raw data, control 5185) of the same compound?
A: Its value is 5221 counts per minute.

Q: What about the “COUNTS PER MINUTE (glucose uptake)” value (L6 Myoblasts; Table 1, Pinitol 1.44 mM, raw data, control 5185) of the same compound?
A: The value was 6009 counts per minute.

Q: What about the “COUNTS PER MINUTE (glucose uptake)” value (L6 Myoblasts; Table 2, Pinitol 1.0 mM, control 3178) of the same compound?
A: The value was 6007 counts per minute.

Q: And the “GLUCOSE TRANSPORT” value (L6 Myoblasts; Pinitol 0.14 mM, calculated data)?
A: The value was 155 pmol · min^−1 · mg protein^−1.

Q: And the “stimulation of glucose transport (conclusion)” value (L6 Myoblasts; alone, higher concentrations (e.g., 1.44 mM))?
A: The value was “significant stimulation in glucose transport”.

Q: And the “stimulation of glucose transport (conclusion)” value (L6 Myoblasts; alone, low concentrations (e.g., 0.14 mM))?
A: The value was “does not meaningfully stimulate glucose transport”.

Q: And the “GLYCOGEN FORMATION 1st Set” value (cells; Table 4, Pinitol 1.4 mM)?
A: The value was 68.36 nmol/min/mg.

Q: What about the “GLYCOGEN FORMATION 2nd Set” value (cells; Table 4, Pinitol 1.4 mM) of the same compound?
A: Its value is 79.08 nmol/min/mg.

Q: What about the “GLYCOGEN FORMATION 3rd Set” value (cells; Table 4, Pinitol 1.4 mM) of the same compound?
A: The value was 64.37 nmol/min/mg.

Q: And the “GLYCOGEN FORMATION Average” value (cells; Table 4, Pinitol 1.4 mM, control 52.44 ± 4.58)?
A: The value was 70.60 ± 7.61 nmol/min/mg.

Q: What about the “GLYCOGEN FORMATION 1st Set” value (cells; Table 4, Pinitol 144.0 mM) of the same compound?
A: Its value is 57.75 nmol/min/mg.

Q: And the “GLYCOGEN FORMATION 2nd Set” value (cells; Table 4, Pinitol 144.0 mM)?
A: Its value is 83.14 nmol/min/mg.

Q: What about the “GLYCOGEN FORMATION 3rd Set” value (cells; Table 4, Pinitol 144.0 mM) of the same compound?
A: Its value is 64.24 nmol/min/mg.

Q: And the “GLYCOGEN FORMATION Average” value (cells; Table 4, Pinitol 144.0 mM, control 52.44 ± 4.58)?
A: Its value is 68.38 ± 13.19 nmol/min/mg.

Q: What about the “GLYCOGEN FORMATION 1st Set” value (cells; Table Five, Pinitol 1.4 mM) of the same compound?
A: The value was 102.40 nmol/min/mg.

Q: What about the “GLYCOGEN FORMATION 2nd Set” value (cells; Table Five, Pinitol 1.4 mM) of the same compound?
A: The value was 117.18 nmol/min/mg.

Q: And the “GLYCOGEN FORMATION 3rd Set” value (cells; Table Five, Pinitol 1.4 mM)?
A: Its value is 183.05 nmol/min/mg.

Q: And the “GLYCOGEN FORMATION 4th Set” value (cells; Table Five, Pinitol 1.4 mM)?
A: The value was 113.15 nmol/min/mg.

Q: And the “GLYCOGEN FORMATION 5th Set” value (cells; Table Five, Pinitol 1.4 mM)?
A: Its value is 124.64 nmol/min/mg.

Q: What about the “GLYCOGEN FORMATION 6th Set” value (cells; Table Five, Pinitol 1.4 mM) of the same compound?
A: Its value is 158.40 nmol/min/mg.

Q: What about the “GLYCOGEN FORMATION Average” value (cells; Table Five, Pinitol 1.4 mM, control 130.18 ± 20.87) of the same compound?
A: The value was 133.14 ± 30.99 nmol/min/mg.

Q: And the “GLYCOGEN FORMATION 1st Set” value (cells; Table Five, Pinitol 144 mM)?
A: Its value is 123.03 nmol/min/mg.

Q: What about the “GLYCOGEN FORMATION 2nd Set” value (cells; Table Five, Pinitol 144 mM) of the same compound?
A: The value was 211.04 nmol/min/mg.

Q: And the “GLYCOGEN FORMATION 3rd Set” value (cells; Table Five, Pinitol 144 mM)?
A: Its value is 146.53 nmol/min/mg.

Q: And the “GLYCOGEN FORMATION 4th Set” value (cells; Table Five, Pinitol 144 mM)?
A: The value was 192.74 nmol/min/mg.

Q: What about the “GLYCOGEN FORMATION 5th Set” value (cells; Table Five, Pinitol 144 mM) of the same compound?
A: Its value is 97.05 nmol/min/mg.

Q: What about the “GLYCOGEN FORMATION 6th Set” value (cells; Table Five, Pinitol 144 mM) of the same compound?
A: The value was 199.85 nmol/min/mg.

Q: What about the “GLYCOGEN FORMATION Average” value (cells; Table Five, Pinitol 144 mM, control 130.18 ± 20.87) of the same compound?
A: Its value is 161.71 ± 46.39 nmol/min/mg.

Q: What about the “stimulation of glycogen formation (conclusion)” value (cells; administered alone) of the same compound?
A: The value was “significant stimulation in glycogen formation”.

Q: With “Insulin: insulin, used to treat the cells alone or with pinitol as comparison” as the compound, how does the “stimulation of glucose transport (conclusion)” value (L6 Myoblasts; [1]) read?
A: The value was “significant stimulation in glucose transport”.

Q: What about the “COUNTS PER MINUTE (glucose uptake)” value (L6 Myoblasts; Table 2, Insulin 10^−3 mM, control 3178) of the same compound?
A: Its value is 4477 counts per minute.

Q: And the “GLUCOSE TRANSPORT” value (L6 Myoblasts; Insulin 10^−5 mM)?
A: Its value is 200 pmol · min^−1 · mg protein^−1.

Q: What about the “GLYCOGEN FORMATION 1st Set” value (cells; Table 4, Insulin 10^−6 mM) of the same compound?
A: Its value is 136.27 nmol/min/mg.

Q: And the “GLYCOGEN FORMATION 2nd Set” value (cells; Table 4, Insulin 10^−6 mM)?
A: Its value is 96.14 nmol/min/mg.

Q: And the “GLYCOGEN FORMATION 3rd Set” value (cells; Table 4, Insulin 10^−6 mM)?
A: Its value is 212.09 nmol/min/mg.

Q: What about the “GLYCOGEN FORMATION Average” value (cells; Table 4, Insulin 10^−6 mM, control 52.44 ± 4.58) of the same compound?
A: Its value is 148.17 ± 58.89 nmol/min/mg.

Q: And the “GLYCOGEN FORMATION 1st Set” value (cells; Table 4, Insulin 10^−8 mM)?
A: The value was 68.45 nmol/min/mg.

Q: And the “GLYCOGEN FORMATION 2nd Set” value (cells; Table 4, Insulin 10^−8 mM)?
A: Its value is 75.36 nmol/min/mg.

Q: And the “GLYCOGEN FORMATION Average” value (cells; Table 4, Insulin 10^−8 mM, control 52.44 ± 4.58)?
A: The value was 71.90 ± 4.89 nmol/min/mg.

Q: What about the “GLYCOGEN FORMATION 1st Set” value (cells; Table Five, Insulin 10^−7 M) of the same compound?
A: Its value is 186.52 nmol/min/mg.

Q: And the “GLYCOGEN FORMATION 2nd Set” value (cells; Table Five, Insulin 10^−7 M)?
A: The value was 179.88 nmol/min/mg.

Q: What about the “GLYCOGEN FORMATION 3rd Set” value (cells; Table Five, Insulin 10^−7 M) of the same compound?
A: Its value is 79.32 nmol/min/mg.

Q: What about the “GLYCOGEN FORMATION 4th Set” value (cells; Table Five, Insulin 10^−7 M) of the same compound?
A: The value was 167.44 nmol/min/mg.

Q: And the “GLYCOGEN FORMATION 5th Set” value (cells; Table Five, Insulin 10^−7 M)?
A: Its value is 136.35 nmol/min/mg.

Q: What about the “GLYCOGEN FORMATION Average” value (cells; Table Five, Insulin 10^−7 M, control 130.18 ± 20.87) of the same compound?
A: Its value is 149.90 ± 43.91 nmol/min/mg.
